{"source": "ChEMBL document CHEMBL5370633", "about": "“Anti-cancer Effect of a Planar Catechin Analog through the Decrease in Mitochondrial Membrane Potential” (ACS Med Chem Lett, 2023)", "key": {"RGK1 [1]": {"test_system": "RGK1", "assay": "Induction of mitochondrial membrane potential loss in rat RGK1 cells at 200 uM after 24 hrs by MitoTracker Red CMXRos fluorescence microscopic analysis", "format": "functional, cell-based"}, "RGK1 [2]": {"test_system": "RGK1", "assay": "Antiproliferative activity against rat RGK1 cells assessed as reduction in viability at 100 to 100 uM after 24 hrs by CCK-8 assay", "format": "functional, cell-based", "conditions": "dose 100-100 µM"}, "[3]": {"assay": "Cytotoxicity against rat RGM1 cells assessed as reduction in viability at 100 to 100 uM after 24 hrs by CCK-8 assay", "format": "toxicity, cell-based", "conditions": "rgm1, 24 h, dose 100-100 µM"}}, "note": "The source made the active and inactive calls. No cut-off for these calls is given here."}
{"smiles": "CC1(C)O[C@H]2Cc3c(O)cc(O)cc3O[C@@H]2c2cc(O)c(O)cc21", "values": [{"measurement": "Activity", "setting": "RGK1 [1]", "value": "Active"}, {"measurement": "Activity", "setting": "RGK1 [2]", "value": "Active"}, {"measurement": "Activity", "setting": "[3]", "value": "Toxic"}]}
